Where two headings read alike, the source gives them in different places.
How the values were obtained:
OVCAR8-eDHFR-Luc cells = experiment: Kill assay (MTT) in OVCAR8-eDHFR-Luc cells; format: cell-based, human
Description: (§1) Following the same uptake protocol till washing after the third wash the cells were counted using cell counter and they were diluted to generate even number of cells/mL. […] We've applied the same blocked conditions used in the uptake assay. […] Then cells will be re-distributed into 96 well plates (2,000 cells/well) with fresh media to monitor cell proliferation by MTT assay on days 1, 3, 7 and 10. A total of 9 wells (3×3) were measured on the plate per sample per time point. To complete the assay cell media was removed and replaced with 50 μL of serum free media and 50 μL of MTT reagent. The plates were covered with tin foil and incubated at 37 °C for 3 hours. The plates were shaken at 200 rpm at 37 °C for 15 min. Using the microplate plate reader, sample absorbance was measured at 590 nm for 600 ms. Controls included [^131I]NaI treated cells and blocking with 10 μM parent TMP (unlabeled). An analogous procedure was used for the OVCAR8-eDHFR-Luc kill assay with different doses (1.85-37 MBq) and treatment times.
To investigate the therapeutic potential of m[^131I]mI-TMP 5b in tumor cell lines, OVCAR8 eDHFR+ cells were exposed to varying doses (ranging from 1.85-37 MBq) of the radiotracer of 5b at different incubation times. Different conditions were employed to assess the selective therapeutic effect of the radio tracer on eDHFR+ cells. To determine the specific killing of eDHFR+ tumor cells, blocked conditions were analyzed. The cell viability of compound 5b-treated cells was also compared with the cells exposed to [^131I]I—Na. Additionally, untreated cells were used as controls. The MTT assay was used to measure the cell viability of the cells under the aforementioned conditions on days 1, 3, 7, and 12.
OVCAR8-eDHFR-Luc+ cells were treated with 1.85 and 18.5 MBq of m[^131I]mI-TMP 5b and [^131I]I—Na, incubated for 1 hour. […] The cell viability of the compound 5b-treated cells was similar to cells under blocked, [^131I]NaI, and no drug conditions. See, FIG. 2A. […] See, FIG. 2B. Based on the results obtained, a continued dose escalation was considered to better understand the therapeutic window. Finally, OVCAR_eDHFR+ cells were tested with 37 MBq dose of m[^131I]mI-TMP.

HCT116 eDHFR-Luc cells = experiment: Kill assay (MTT) in HCT116 eDHFR-Luc cells; format: cell-based, human; details: 3.7 MBq; for cell growth at day 10: in comparison to blocked conditions
Description: as §1
Despite lower uptake in HCT116 cells, cell viability was measured on days 1, 3, 7, and 10 using the MTT assay and compared with blocked, no drug and [^131I]I—Na treated cells. […] See, FIG. 3A. […] See, FIG. 3B.

eDHFR [1] = target: T1, eDHFR (Escherichia coli, UniProt P0ABQ4)
T1 sequence (P0ABQ4 1-159): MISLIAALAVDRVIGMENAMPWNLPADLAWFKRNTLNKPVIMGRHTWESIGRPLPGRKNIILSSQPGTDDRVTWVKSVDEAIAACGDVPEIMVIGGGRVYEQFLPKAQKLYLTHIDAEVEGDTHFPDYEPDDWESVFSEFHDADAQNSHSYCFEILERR

eDHFR [2] = target: T1, eDHFR; format: cell-based; parameters: in CAR T cells fused to C-terminus of CD3zeta of FAP-CAR; details: for uptake in eDHFR+ CAR T cells compared to NTD cells: 0.074 MBq, 60 min at 37 °C, FAP-CAR-eDHFR (DF-BFP), day 8 of T cell expansion, 60 min
Description: Primary human T cells were sourced from healthy volunteers through the Human Immunology Core at the University of Pennsylvania. All specimens were obtained following institutional review board-approved protocols and informed consent from the volunteers. Bulk T cells were activated and expanded following established methods and subsequently, either pTRPE-FAP CAR-eDHFR DF or pTRPE-FAP CAR-eDHFR DF-T2A-BFP (7) lentivirus was introduced to the activated T cells 16 hours post-activation at a multiplicity of infection (MOI) of 5. The T cells were then expanded for a period of 10 days. Transduced CAR T cells were incubated with Alexa Fluor 647 AffiniPure F(ab′2) fragment goat anti-mouse immunoglobulin G (Jackson ImmunoResearch Laboratories) for half an hour at room temperature. Following incubation, stained cells were washed 3*100 μL with FACS buffer (2% bovine serum albumin in PBS, Invitrogen). The washed cells were analyzed using a flow cytometer (LSR II, BD Biosciences) to detect CAR and/or BFP expression. FlowJo software was used to analyze the flow data.
Next, the uptake radio-iodinated probe 5b was evaluated in primary human CAR-T cells. CAR-T cells were engineered to express eDHFR which is fused directly to the C-terminus of the signaling CD3zeta domain of the fibroblast activation protein (FAP) CAR. […] After incubation, the cells were centrifuged at 1200 rpm and were washed thrice with cold PBS (Corning). Subsequently, the cell pellet was resuspended in 1% DMSO/PBS and divided into 3 technical replicates of 100 μL each. The uptake of radiotracer was quantified using a gamma counter (PerkinElmer). The final uptake was expressed as a ratio of % ID normalized per […] cells (% ID/million cells). An about 15 fold more uptake in eDHFR+ cells was observed as compared to NTD cells. See, FIGS. 6A and 6B. The specificity is further assessed by comparing with FAP_CAR_eDHFR(df) which has low eDHFR expression. Less uptake of radiotracer 5b was observed as compared to high expressing eDHFR FAP_CARs.
[^131I]I-TMP in CAR T cells. […] In this case, two different fibroblast activation protein (FAP) CAR T cell constructs that express eDHFR fused directly to the C-terminus of the signaling CD3zeta domain of the CAR were used (7) (FIGS. 13F and 13G). […] There was ~15-fold more uptake in FAP-CAR-eDHFR-DF-BFP in comparison to NTD cells at day 8 of T cell expansion (FIG. 13A).

Compound: COc1cc(Cc2cnc(N)nc2N)cc(I)c1OC [[^131I]mI-TMP, 5-(3-iodo-4,5-dimethoxybenzyl)pyrimidine-2,4-diamine]
- cytotoxic effect / cell viability (OVCAR8-eDHFR-Luc cells; 1.85 MBq, 1 hour): did not exhibit any cytotoxic effects/decreased viability
- cell viability under blocked conditions (OVCAR8-eDHFR-Luc cells; 18.5 MBq, 1 h, cells treated with the blocking agent (10 μM TMP)): comparable viability to those under no treatment or [^131I]I—Na conditions
- cytotoxic effect / cell viability (OVCAR8-eDHFR-Luc cells; 18.5 MBq, 1 h, viability to day 12): strong cytotoxic effects, and thus no cell regrowth/significantly lower viability was observed at day 7 and even at day 12
- cytotoxic effect (HCT116 eDHFR-Luc cells; 2 hours incubation): did not exhibit any cytotoxic effect
- cell viability at day 7 (HCT116 eDHFR-Luc cells; 4 hours incubation): did not show any viability on day 7
- cytotoxic effect (HCT116 eDHFR-Luc cells; 4 hours incubation, compared to blocked cells): demonstrated a cytotoxic effect
- cell growth at day 10 (HCT116 eDHFR-Luc cells; 4 hours incubation): mild growth at day 10
- uptake under blocked conditions (eDHFR [1]; OVCAR8 eDHFR cells preincubated with excess of TMP): reduced uptake
- retention in washout study (eDHFR [2]; FAP_CAR_eDHFR cells, after 5 h): strong internalization of compound 5b even after 5 h
- uptake in FAP_CAR_eDHFR(df) with low eDHFR expression (eDHFR [2]; compared to high expressing eDHFR FAP_CARs): Less uptake

Compound: COc1cc(Cc2cnc(N)nc2N)cc([131I])c1OC [[^131I]mI-TMP, 5-(3-iodo-4,5-dimethoxybenzyl)pyrimidine-2,4-diamine]
- cytotoxic effect (OVCAR8-eDHFR-Luc cells; 37 MBq, also with 20 minutes incubation, blocked cells behaved the same): non-specific cell killing
- cell viability at day 7 (HCT116 eDHFR-Luc cells; 4 hours incubation): no cell regrowth at day 7
- cell growth at day 10 (HCT116 eDHFR-Luc cells; 4 hours incubation): mild regrowth was observed at day 10 and beyond
- tracer uptake in eDHFR+ cells compared to WT cells (eDHFR [1]; OVCAR8-eDHFR-Luc vs OVCAR8 WT, 0.037 MBq, 1 hour): ~ 25 fold
- uptake in eDHFR+ CAR T cells compared to NTD cells (eDHFR [2]): about 15 fold
- uptake in eDHFR+ CAR T cells compared to NTD cells (eDHFR [2]; listed as [^131I]I-TMP): ~ 15 fold
- uptake in CAR T cells, earlier day of expansion (eDHFR [2]; earlier day of expansion (day 5)): ~ 3 fold
